# Data as given in ChEMBL document CHEMBL3875178, “Discovery of oral-available resveratrol-caffeic acid based hybrids inhibiting acetylated and phosphorylated STAT3 protein” (Eur J Med Chem, 2016).
# The source made the active and inactive calls. No cut-off for these calls is given here.
# Experiments:
# [1] = system: MDA-MB-231; assay: Induction of apoptosis in human MDA-MB-231 cells assessed as live cells at 1 uM after 48 hrs by Annexin-V FITC/propidium iodide staining based flow cytometry (reference value: 96.1%); assay type: functional
# [2] = system: MDA-MB-231; assay: Induction of apoptosis in human MDA-MB-231 cells assessed as live cells at 10 uM after 48 hrs by Annexin-V FITC/propidium iodide staining based flow cytometry (reference value: 96.1%); assay type: functional
# [3] = system: MDA-MB-231; assay: Induction of apoptosis in human MDA-MB-231 cells assessed as necrotic cells at 8 uM after 48 hrs by Annexin-V FITC/propidium iodide staining based flow cytometry (reference value: 0.8%); assay type: functional
# [4] = target: Signal transducer and activator of transcription 3 (Homo sapiens) (UniProt P40763); assay: Inhibition of STAT3 acetylation at Lys-685 residue in human MDA-MB-231 cells assessed as increase in PTPN6 mRNA at 1- 10 uM expression after 48 hrs by RT-PCR method; assay type: cell-based
# [5] = system: MDA-MB-231; assay: Induction of apoptosis in human MDA-MB-231 cells assessed as increase in cleaved caspase-9 expression after 48 hrs by Western blot method; assay type: functional, cell-based
# [6] = system: MDA-MB-231; assay: Induction of apoptosis in human MDA-MB-231 cells assessed as early apoptotic cells at 5 uM after 48 hrs by Annexin-V FITC/propidium iodide staining based flow cytometry (reference value: 2.6%); assay type: functional
# [7] = system: MDA-MB-231; assay: Induction of apoptosis in human MDA-MB-231 cells assessed as early apoptotic cells at 1 uM after 48 hrs by Annexin-V FITC/propidium iodide staining based flow cytometry (reference value: 2.6%); assay type: functional
# [8] = target: Signal transducer and activator of transcription 3 (Homo sapiens) (UniProt P40763); assay: Inhibition of STAT3 phosphorylation at Tyr-705 residue in human MDA-MB-231 cells assessed as decrease in Bcl2 mRNA expression at 1 to 5 uM after 48 hrs by RT-PCR method; assay type: cell-based
# [9] = system: MDA-MB-231; assay: Induction of apoptosis in human MDA-MB-231 cells assessed as necrotic cells at 2 uM after 48 hrs by Annexin-V FITC/propidium iodide staining based flow cytometry (reference value: 0.8%); assay type: functional
# [10] = system: MDA-MB-231; assay: Induction of apoptosis in human MDA-MB-231 cells assessed as necrotic cells at 1 uM after 48 hrs by Annexin-V FITC/propidium iodide staining based flow cytometry (reference value: 0.8%); assay type: functional
# [11] = system: MDA-MB-231; assay: Induction of apoptosis in human MDA-MB-231 cells assessed as early apoptotic cells at 10 uM after 48 hrs by Annexin-V FITC/propidium iodide staining based flow cytometry (reference value: 2.6%); assay type: functional
# [12] = system: MDA-MB-231; assay: Induction of apoptosis in human MDA-MB-231 cells assessed as live cells at 5 uM after 48 hrs by Annexin-V FITC/propidium iodide staining based flow cytometry (reference value: 96.1%); assay type: functional
# [13] = system: MDA-MB-231; assay: Induction of apoptosis in human MDA-MB-231 cells assessed as increase in cleaved caspase-3 expression after 48 hrs by Western blot method; assay type: functional, cell-based
# [14] = target: Signal transducer and activator of transcription 3 (Homo sapiens) (UniProt P40763); assay: Inhibition of STAT3 acetylation at Lys-685 residue in human MDA-MB-231 cells assessed as increase in CDKN2A mRNA at 1- 10 uM expression after 48 hrs by RT-PCR method; assay type: cell-based
# [15] = target: Signal transducer and activator of transcription 3 (Homo sapiens) (UniProt P40763); assay: Inhibition of STAT3 acetylation at Lys-685 residue in human MDA-MB-231 cells after 48 hrs by Western blot method; assay type: cell-based
# [16] = system: Mus musculus; assay: Toxicity in Kunming mouse implanted with mouse 4T1 cells assessed as body weight loss at 10 to 20 mg/kg, po qd for 14 days measured during compound dosing; assay type: organism-based; details: in vivo, 336 h
# [17] = system: Mus musculus; assay: In vivo inhibition of STAT3 phosphorylation at Tyr-705 residue in tumor of Kunming mouse implanted with mouse 4T1 cells at 10 to 20 mg/kg, po qd for 14 days; assay type: functional, organism-based
# [18] = system: MDA-MB-231; assay: Induction of apoptosis in human MDA-MB-231 cells assessed as late apoptotic cells at 2 uM after 48 hrs by Annexin-V FITC/propidium iodide staining based flow cytometry (reference value: 0.4%); assay type: functional
# [19] = system: MDA-MB-231; assay: Induction of apoptosis in human MDA-MB-231 cells assessed as late apoptotic cells at 1 uM after 48 hrs by Annexin-V FITC/propidium iodide staining based flow cytometry (reference value: 0.4%); assay type: functional
# [20] = system: MDA-MB-231; assay: Induction of apoptosis in human MDA-MB-231 cells assessed as late apoptotic cells at 5 uM after 48 hrs by Annexin-V FITC/propidium iodide staining based flow cytometry (reference value: 0.4%); assay type: functional
# [21] = Growth inhibition of human HT-29 cells after 48 hrs by MTT assay; assay type: functional, cell-based; details: HT-29, 48 h
# [22] = system: MDA-MB-231; assay: Induction of apoptosis in human MDA-MB-231 cells assessed as live cells at 2 uM after 48 hrs by Annexin-V FITC/propidium iodide staining based flow cytometry (reference value: 96.1%); assay type: functional
# [23] = target: Signal transducer and activator of transcription 3 (Homo sapiens) (UniProt P40763); assay: Inhibition of STAT3 phosphorylation at Tyr-705 residue in human MDA-MB-231 cells assessed as decrease in Bcl2 protein expression at 1 to 5 uM after 48 hrs by Western blot method; assay type: cell-based
# [24] = system: MDA-MB-231; assay: Induction of apoptosis in human MDA-MB-231 cells assessed as late apoptotic cells at 10 uM after 48 hrs by Annexin-V FITC/propidium iodide staining based flow cytometry (reference value: 0.4%); assay type: functional
# [25] = system: MDA-MB-231; assay: Antiproliferative activity against human MDA-MB-231 cells assessed as inhibition of colony formation after 48 hrs by crystal violet staining based assay; assay type: functional, cell-based
# [26] = system: MDA-MB-231; assay: Induction of apoptosis in human MDA-MB-231 cells assessed as early apoptotic cells at 2 uM after 48 hrs by Annexin-V FITC/propidium iodide staining based flow cytometry (reference value: 2.6%); assay type: functional
# [27] = system: 4T1; assay: Antitumor activity against mouse 4T1 cells implanted in Kunming mouse assessed as tumor growth inhibition at 10 to 20 mg/kg, po qd for 14 days; assay type: functional, organism-based
# [28] = system: MDA-MB-231; assay: Induction of apoptosis in human MDA-MB-231 cells assessed as necrotic cells at 5 uM after 48 hrs by Annexin-V FITC/propidium iodide staining based flow cytometry (reference value: 0.8%); assay type: functional
# [29] = system: MDA-MB-231; assay: Induction of apoptosis in human MDA-MB-231 cells assessed as early apoptotic cells at 8 uM after 48 hrs by Annexin-V FITC/propidium iodide staining based flow cytometry (reference value: 2.6%); assay type: functional
# [30] = system: MDA-MB-231; assay: Induction of apoptosis in human MDA-MB-231 cells assessed as live cells at 8 uM after 48 hrs by Annexin-V FITC/propidium iodide staining based flow cytometry (reference value: 96.1%); assay type: functional
# [31] = system: MDA-MB-231; assay: Potency index, ratio of resveratrol IC50 to compound IC50 for human MDA-MB-231 cells; assay type: functional
# [32] = target: Signal transducer and activator of transcription 3 (Homo sapiens) (UniProt P40763); assay: Inhibition of STAT3 phosphorylation at Tyr-705 residue in human MDA-MB-231 cells assessed as decrease in Cyclin D1 mRNA expression at 1 to 5 uM after 48 hrs by RT-PCR method; assay type: cell-based
# [33] = target: Signal transducer and activator of transcription 3 (Homo sapiens) (UniProt P40763); assay: Inhibition of STAT3 phosphorylation at Tyr-705 residue in human MDA-MB-231 cells assessed as decrease in Cyclin D1 protein expression at 1 to 5 uM after 48 hrs by Western blot method; assay type: cell-based
# [34] = target: Signal transducer and activator of transcription 3 (Homo sapiens) (UniProt P40763); assay: Inhibition of STAT3 phosphorylation at Tyr-705 residue in human MDA-MB-231 cells after 48 hrs by Western blot method; assay type: cell-based
# [35] = Effect on total STAT3 protein level in human MDA-MB-231 cells at 1 to 5 uM after 48 hrs by Western blot method; assay type: ADME, cell-based; details: mda-mb-231, 48 h
# [36] = Growth inhibition of human MDA-MB-231 cells after 48 hrs by MTT assay; assay type: functional, cell-based; details: MDA-MB-231, 48 h
# [37] = system: MDA-MB-231; assay: Induction of apoptosis in human MDA-MB-231 cells assessed as late apoptotic cells at 8 uM after 48 hrs by Annexin-V FITC/propidium iodide staining based flow cytometry (reference value: 0.4%); assay type: functional
# [38] = system: MDA-MB-231; assay: Induction of apoptosis in human MDA-MB-231 cells assessed as necrotic cells at 10 uM after 48 hrs by Annexin-V FITC/propidium iodide staining based flow cytometry (reference value: 0.8%); assay type: functional
# [39] = target: Signal transducer and activator of transcription 3 (Homo sapiens) (UniProt P40763); assay: Inhibition of STAT3 acetylation at Lys-685 residue in human MDA-MB-231 cells assessed as increase in DLEC1 mRNA at 1- 10 uM expression after 48 hrs by RT-PCR method; assay type: cell-based
# [40] = system: MDA-MB-231; assay: Induction of apoptosis in human MDA-MB-231 cells assessed as increase in cleaved caspase-8 expression after 48 hrs by Western blot method; assay type: functional, cell-based
# [41] = system: MDA-MB-231; assay: Potency index, ratio of caffeic acid IC50 to compound IC50 for human MDA-MB-231 cells; assay type: functional
# Sequence of Signal transducer and activator of transcription 3 (Homo sapiens) (P40763 whole entry): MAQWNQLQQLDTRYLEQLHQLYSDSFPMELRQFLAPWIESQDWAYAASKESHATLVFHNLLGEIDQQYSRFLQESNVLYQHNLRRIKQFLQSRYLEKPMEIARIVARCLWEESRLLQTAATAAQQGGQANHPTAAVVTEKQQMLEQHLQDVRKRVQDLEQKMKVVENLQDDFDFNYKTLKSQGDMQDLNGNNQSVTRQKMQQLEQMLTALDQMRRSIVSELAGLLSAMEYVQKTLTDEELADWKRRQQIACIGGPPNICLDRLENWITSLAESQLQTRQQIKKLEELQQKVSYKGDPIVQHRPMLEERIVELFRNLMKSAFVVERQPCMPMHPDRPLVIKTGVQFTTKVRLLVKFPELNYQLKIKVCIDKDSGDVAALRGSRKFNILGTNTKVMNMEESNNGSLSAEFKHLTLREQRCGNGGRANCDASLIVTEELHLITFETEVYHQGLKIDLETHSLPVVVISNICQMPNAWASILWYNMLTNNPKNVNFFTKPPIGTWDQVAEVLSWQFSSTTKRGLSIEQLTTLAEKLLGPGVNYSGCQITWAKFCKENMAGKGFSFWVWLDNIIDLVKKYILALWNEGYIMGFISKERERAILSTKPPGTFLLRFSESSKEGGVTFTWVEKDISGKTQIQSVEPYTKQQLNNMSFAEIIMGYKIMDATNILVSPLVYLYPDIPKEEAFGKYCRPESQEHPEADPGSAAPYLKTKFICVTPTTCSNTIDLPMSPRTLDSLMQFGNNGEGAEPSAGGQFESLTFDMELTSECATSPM
smiles,measurement,setting,value
COc1cc(/C=C/c2ccc(NC(=O)/C=C/c3cc(OC)c(OC)c(OC)c3)cc2)cc(OC)c1,Activity,[1],89.7%
same,Activity,[2],18.5%
same,Activity,[3],0.6%
same,inhibition,[4],Active
same,Activity,[5],Dose-dependent effect
same,Activity,[6],16.2%
same,Activity,[7],7.7%
same,inhibition,[8],Active
same,Activity,[9],1.3%
same,Activity,[10],1.3%
same,Activity,[11],74.6%
same,Activity,[12],78%
same,Activity,[13],Dose-dependent effect
same,inhibition,[14],Active
same,inhibition,[15],Dose-dependent effect
same,Activity,[16],Non-Toxic
same,inhibition,[17],Active
same,Activity,[18],1.4%
same,Activity,[19],1.3%
same,Activity,[20],4.7%
same,IC50,[21],1820 nM
same,Activity,[22],87.5%
same,inhibition,[23],Active
same,Activity,[24],10.6%
same,inhibition,[25],Dose-dependent effect
same,Activity,[26],9.8%
same,TGI,[27],Active
same,Activity,[28],1.1%
same,Activity,[29],37.1%
same,Activity,[30],51.8%
same,Ratio IC50,[31],>50
same,inhibition,[32],Active
same,inhibition,[33],Active
same,inhibition,[34],Dose-dependent effect
same,Activity,[35],Non-Toxic
same,IC50,[36],2140 nM
same,Activity,[37],6.2%
same,Activity,[38],0.7%
same,inhibition,[39],Active
same,Activity,[40],Active
same,Ratio IC50,[41],>50
